Source: ChEMBL document CHEMBL1144818, “Antifouling activity of a dibrominated cyclopeptide from the marine sponge Geodia barretti” (J Nat Prod, 2008)
Activity calls are given as the source filed them. No cut-off for these calls is given here.

Tests used:
[1] = molecular target: 5-hydroxytryptamine receptor 4 (Homo sapiens) (UniProt Q13639); experiment: Binding affinity to human 5HT4 receptor expressed in HEK293 cells below 10 uM; assay type: cell-based
[2] = molecular target: T1, 5-hydroxytryptamine receptor 2C (Homo sapiens) (UniProt P28335); experiment: Binding affinity to human 5HT2C receptor expressed in HEK293 cells; assay type: cell-based
T1 sequence (whole entry): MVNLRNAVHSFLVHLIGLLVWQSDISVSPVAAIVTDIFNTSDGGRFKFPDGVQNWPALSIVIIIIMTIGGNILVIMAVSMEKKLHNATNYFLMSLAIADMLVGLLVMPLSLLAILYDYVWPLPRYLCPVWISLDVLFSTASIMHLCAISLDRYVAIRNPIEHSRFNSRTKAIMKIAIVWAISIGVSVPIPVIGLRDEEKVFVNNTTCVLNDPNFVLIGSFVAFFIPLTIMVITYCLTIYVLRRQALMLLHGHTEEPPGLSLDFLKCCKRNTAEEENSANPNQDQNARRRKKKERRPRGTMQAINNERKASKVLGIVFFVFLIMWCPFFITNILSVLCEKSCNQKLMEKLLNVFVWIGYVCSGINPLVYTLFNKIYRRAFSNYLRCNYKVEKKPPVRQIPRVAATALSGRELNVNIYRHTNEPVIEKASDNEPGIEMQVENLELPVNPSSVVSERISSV

Amphibalanus improvisus [3] = experiment: Antifouling activity in Balanus improvisus assessed as inhibition of cyprid larvae settlement; assay type: functional, organism-based
[4] = molecular target: 5-hydroxytryptamine receptor 2A (Homo sapiens) (UniProt P28223); experiment: Binding affinity to human 5HT2A receptor expressed in HEK293 cells; assay type: cell-based
Sequence of 5-hydroxytryptamine receptor 2A (Homo sapiens) (P28223 whole entry): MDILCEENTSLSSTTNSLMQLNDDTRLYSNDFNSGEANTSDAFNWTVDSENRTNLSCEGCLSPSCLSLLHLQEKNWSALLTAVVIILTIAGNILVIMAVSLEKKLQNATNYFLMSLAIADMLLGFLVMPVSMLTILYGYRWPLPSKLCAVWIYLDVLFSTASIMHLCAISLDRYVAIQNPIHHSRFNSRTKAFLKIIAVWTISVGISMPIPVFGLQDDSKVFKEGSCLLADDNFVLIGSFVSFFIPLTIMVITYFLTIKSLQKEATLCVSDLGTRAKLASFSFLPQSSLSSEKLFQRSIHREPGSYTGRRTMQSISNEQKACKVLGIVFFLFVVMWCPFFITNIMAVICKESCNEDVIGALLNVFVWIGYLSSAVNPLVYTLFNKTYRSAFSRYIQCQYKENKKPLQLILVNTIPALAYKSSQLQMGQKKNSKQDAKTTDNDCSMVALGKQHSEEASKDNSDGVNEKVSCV

Amphibalanus improvisus [5] = experiment: Reversal of antifouling activity in Balanus improvisus assessed as inhibition of cyprid larvae settlement at 10 uM after 48 hrs measured after transferring to fresh sea water; assay type: functional, organism-based
[6] = molecular target: 5-hydroxytryptamine receptor 4 (Homo sapiens) (UniProt Q13639); experiment: Binding affinity to human 5HT4 receptor expressed in HEK293 cells; assay type: cell-based

Sequence of 5-hydroxytryptamine receptor 4 (Homo sapiens) (Q13639 whole entry): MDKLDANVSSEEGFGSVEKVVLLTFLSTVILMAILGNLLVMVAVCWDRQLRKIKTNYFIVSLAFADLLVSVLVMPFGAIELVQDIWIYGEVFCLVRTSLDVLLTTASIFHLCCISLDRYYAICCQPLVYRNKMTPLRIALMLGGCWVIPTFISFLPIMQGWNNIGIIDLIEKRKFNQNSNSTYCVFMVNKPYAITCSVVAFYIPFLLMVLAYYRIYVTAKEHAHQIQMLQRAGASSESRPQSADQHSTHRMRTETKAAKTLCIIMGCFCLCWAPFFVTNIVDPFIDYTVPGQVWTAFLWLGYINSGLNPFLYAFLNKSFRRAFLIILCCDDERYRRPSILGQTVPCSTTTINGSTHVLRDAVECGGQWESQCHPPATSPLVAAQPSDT

| SMILES | Activity [1] | Activity [2] | EC50 (Amphibalanus improvisus [3]) | Activity [4] | Activity (Amphibalanus improvisus [5]) | Activity [6] |
| --- | --- | --- | --- | --- | --- | --- |
| N=C(N)NCCC[C@@H]1NC(=O)C(Cc2c[nH]c3cc(Br)ccc23)NC1=O (stereo partly specified) | Active |  |  |  |  |  |
| N=C(N)NCCC[C@@H]1NC(=O)C(C(O)(c2c[nH]c3cc(Br)ccc23)c2c(Br)ccc3c(=O)o[nH]c23)NC1=O (stereo partly specified) |  | inactive | 15 nM | inactive | Active | inactive |
